{
  "source": "patent US9730445B2",
  "about": "“Herbicidal compositions comprising 4-amino-3-chloro-5-fluoro-6-(4-chloro-2-fluoro-3-methoxyphenyl) pyridine-2-carboxylic acid or a derivative thereof and fungicides” (DOW AGROSCIENCES LLC, priority 2013, dated 2017)",
  "test_system": "DIGSA",
  "assay": "Postemergence foliar-applied weed control, direct-seeded rice (greenhouse)",
  "format": "in vivo, Digitaria sanguinalis (L.) Scop. (large crabgrass)",
  "note": "Where “and” joins values, the source holds several entries; their conditions need not be identical. Identical values can stand only once.",
  "data": [
    {"smiles": "COc1c(Cl)ccc(-c2nc(C(=O)OCc3ccccc3)c(Cl)c(N)c2F)c1F", "note": "[Compound A Benzyl Ester]", "values": [
      {"measurement": "Visual Weed Control (%)—20 DAA DIGSA Obs", "setting": "20 DAA, r21-23 ester 8/16/32 g ae/ha alone, r24-25 isotianil 100/200 g ai/ha alone, r26-31 ester 8/16/32 at each of 100, 200", "result": "20% and 30% and 40%"},
      {"measurement": "Visual Weed Control (%)—21 DAA DIGSA Obs", "setting": "21 DAA, r38-39 ester 8/16 g ae/ha alone, r40 isotianil 380 g ai/ha alone, r41-42 ester 8/16 + 380", "result": "15% and 25%"},
      {"measurement": "Visual Weed Control (%) - 22 DAA DIGSA Obs", "setting": "22 DAA, r22-24 ester 8/16/32 g ae/ha alone, r25-27 difenoconazole 50/100/200 g ai/ha alone, r28-36 ester 8/16/32 at each of 50, 100, 200", "result": "15% and 23% and 28%"}
    ]}
  ]
}
